The results in this text go back to patent publication US6743363B2, “Method of bacteriostasis or disinfection for permselective membrane” (Toray Industries, Inc., priority 1998, dated 2004).

Where two headings read alike, the source gives them in different places.

One test relates to E. coli. Kind of test: Survival rate of cells in 3.5% artificial seawater: E. coli. Format: cell-based, Escherichia coli. Here is the method:
(§1) For comparison, 500 ppm of sodium bisulfite was added in place of sulfuric acid, and the data obtained are also shown in Table 1.

Test [1] has as its system suspension of a solid deposit on a reverse osmosis membrane having been used in seawater desalination. Kind of test: Survival rate of cells in 3.5% artificial seawater: suspension of deposit on membrane. Type of test: cell-based. Here is the method:
as §1

For test [2], the system named is un-identified bacteria as separated from the solid deposit suspension. Kind of test: Survival rate of cells in 3.5% artificial seawater: cells from deposit on membrane. Format: cell-based. The procedure: as §1
A further test deals with marine bacteria. Kind of test: Colonies formed on agar medium for marine bacteria from treated seawater mixture. Type of test: cell-based. The conditions noted are these: 200 ppm of sulfuric acid, pH 2.8, for 2 hours at 20° C.; 0.1 ml plated on agar pH 7; untreated pH 8.5 gave 200.
Test [3] concerns living cells in the concentrate. As to conditions: Example 1: sulfuric acid pH 3.5 to 4, 30 min/day, running days 1 to 30. From the text: The invention is described concretely with reference to the following Examples, which, however, are not intended to restrict the scope of the invention. In these Examples, the disinfecting effect is represented by the number of living microorganisms, the pressure loss in membrane modules and the consumption of sodium bisulfite (SBS).
Two membrane separation units each having a reverse osmosis membrane of polyamide were driven for seawater desalination through reverse osmosis filtration to produce fresh water. […] In that condition, the two units were continuously driven for 1 month. […] While the units were driven under the condition, the number of the living cells in the concentrate having passed through each unit was counted.

In another test the test system is acid-resistant bacteria. Here is the method: Two membrane separation systems (systems A and B) each comprising a pre-treatment unit and a membrane separation unit having a reverse osmosis membrane module of polyamide were driven for seawater desalination through reverse osmosis filtration to produce fresh water. In these, a culture of the acid-resistant bacteria having been obtained in Reference Example 3 was added to the pre-treated seawater. […] In those conditions, the two systems were continuously driven for 30 days. […] While the systems were driven under the defined conditions, the number of living cells in the concentrate was counted.

Test [4] concerns Escherichia coli K12 IFO 3301. The conditions noted are these: physiological saline 0.9%.
Test [5] deals with Acid-resistant Bacteria 1.
Test [6] relates to Acid-resistant Bacteria 2.
Test [7] relates to Acid-resistant Bacteria 3.
Where [8] appears, read: 500 ppm, 2.5 hr, pH 5.9, 20° C.
[9] abbreviates: 100 ppm, 2.5 hr, pH 5.1, 20° C.
Where [10] appears, read: 120 ppm, 0.5 hr, pH 4.0, 20° C.
The mark [11] stands for this setting: 120 ppm, 2.5 hr, pH 4.0, 20° C.
Where [12] appears, read: 150 ppm, 0.5 hr, pH 3.3, 20° C.
[13] abbreviates: 200 ppm, 0.5 hr, pH 2.9, 20° C.
Setting [14] is: 300 ppm, 0.5 hr, pH 2.5, 20° C.
[15] abbreviates: 250 ppm, 0.5 hr, pH 2.6, 20° C.
Where [16] appears, read: 250 ppm, 2.5 hr, pH 2.6, 20° C.
[17] abbreviates: 300 ppm, 0.5 hr, pH 2.6, 20° C.

Procedure for marine bacteria: 1% of seawater was added to commercially-available, 3.5% artificial seawater having been subjected to pressure disinfection (at 120° C. for 15 minutes), and the pH of the resulting seawater mixture was measured to be 8.5. After having been kept at 20° C. for 2 hours, 0.1 ml of the seawater mixture was applied onto an agar medium for marine bacteria, of which the pH value had been controlled to be 7, and then kept warmed at 20° C.
The pH of the resulting seawater mixture was 2.8. After having been kept at 20° C. for 2 hours, 0.1 ml of the seawater mixture was applied onto an agar medium for marine bacteria, of which the pH value had been controlled to be 7.

`O=S([O-])O.[Na+]` [Sodium Bisulfite, sodium bisulfite, reference compound]: the “Survival Rate (%) E. coli” value in the test on E. coli (setting [8]) was found to be 98%. Besides, the “Survival Rate (%) Suspension of Deposit on Membrane” value in test [1] (setting [8]) turned out to be 90%. Also, the “Survival Rate (%) Cells from Deposit on Membrane” value in test [2] (setting [8]) is on record as 86%.
Take `O=S(=O)(O)O` [Sulfuric Acid, sulfuric acid]: the “Survival Rate (%) E. coli” value in the test on E. coli (setting [9]) is reported as 107%; in the test on E. coli (setting [10]), 105%; in the test with E. coli (setting [11]), 93%; in the test on E. coli (setting [12]), less than 1%; with E. coli (setting [13]), less than 1%; in the test on E. coli (setting [14]), less than 1%. Besides, the “Survival Rate (%) Suspension of Deposit on Membrane” value in test [1] (setting [9]) was 60%; in test [1] (setting [10]), 37%; in test [1] (setting [11]), 15%; in test [1] (setting [12]) it was less than 1%; in test [1] (setting [13]) it was less than 1%; in test [1] (setting [14]), less than 1%. Further, the “Survival Rate (%) Cells from Deposit on Membrane” value in test [2] (setting [9]) was 81%; in [2] (setting [12]), less than 1%; in test [2] (setting [13]), less than 1%; in [2] (setting [14]), less than 1%. In the test with marine bacteria, the “Number of Colonies Formed” value stood at 3. For the same molecule, the “Number of Living Cells in the concentrate, compared with the unit not subjected to the sulfuric acid treatment” value in [3] was  1/100 or less; in [3] (listed as sulfuric acid), 1/100. Moreover, the “Ratio of Living Microbes in Concentrate” value in the test on acid-resistant bacteria (pH 2.6, 30 minutes a day) is reported as less than 1; in the test with acid-resistant bacteria (pH 3.5 to 4.0, 30 minutes a day) it was 100; with acid-resistant bacteria (pH 3.5 to 4.0, 30 minutes a day, plus pH 2.6, 30 minutes a day (once at intervals of 5 days)) it was less than 1. The “survival rate of the cells” value is recorded as no less than 90% in test [4] (10 ppm of sulfuric acid, pH 4.7, 20° C., 2.5 hours); 90% in test [4] (50 ppm of sulfuric acid, pH 3.2, 20° C., 0.5 hours); 20% in test [4] (50 ppm of sulfuric acid, pH 3.2, 20° C., 1 hour); no more than 1% in test [4] (50 ppm of sulfuric acid, pH 3.2, 20° C., 2.5 hours); no more than 1% in test [4] (100 ppm of sulfuric acid, 20° C., 0.5 hours). For the same molecule, the “Survival Rate (%) Acid-resistant Bacteria 1” value in test [5] (200 ppm, 1 hr, pH 2.8, 20° C.) is reported as 50%; in test [5] (setting [15]), 17%; in test [5] (250 ppm, 1 hr, pH 2.6, 20° C.) it was less than 1%; in test [5] (setting [16]), less than 1%; in test [5] (setting [17]), 8%; in test [5] (300 ppm, 1 hr, pH 2.4, 20° C.) it was less than 1%. The “Survival Rate (%) Acid-resistant Bacteria 2” value in test [6] (200 ppm, 1 hr, pH 2.8, 20° C.) was 22%; in test [6] (setting [15]) it was 33%; in test [6] (250 ppm, 1 hr, pH 2.6, 20° C.) it was 2%; in test [6] (setting [16]), less than 1%; in test [6] (setting [17]) it was 1%; in [6] (300 ppm, 1 hr, pH 2.4, 20° C.), less than 1%. Moreover, the “Survival Rate (%) Acid-resistant Bacteria 3” value in test [7] (200 ppm, 1 hr, pH 2.8, 20° C.) is on record as less than 1%; in [7] (setting [15]), 1%; in test [7] (250 ppm, 1 hr, pH 2.6, 20° C.), less than 1%; in test [7] (setting [16]), less than 1%; in test [7] (setting [17]), less than 1%; in test [7] (300 ppm, 1 hr, pH 2.4, 20° C.), less than 1%.
